Test results from ChEMBL document CHEMBL4196125, “Identification of N-Benzyl 3,5-Dinitrobenzamides Derived from PBTZ169 as Antitubercular Agents” (ACS Med Chem Lett, 2018).
In brackets after ≈: the same amount, converted by molar mass.

Key:
Format in all cases: functional
[1] = tested on: Mycobacterium tuberculosis; test: Antitubercular activity against isoniazid/rifampicin-resistant Mycobacterium tuberculosis 12525 clinical isolate measured after 7 days by microplate alamar blue assay; conditions: Mycobacterium tuberculosis, 12525, 168 h
[2] = tested on: Mycobacterium tuberculosis; test: Antitubercular activity against isoniazid/rifampicin-resistant Mycobacterium tuberculosis 14231 clinical isolate measured after 7 days by microplate alamar blue assay; conditions: Mycobacterium tuberculosis, 14231, 168 h
[3] = tested on: Mycobacterium tuberculosis; test: Antitubercular activity against Mycobacterium tuberculosis H37Rv harboring GFP measured after 7 days by fluorescence assay; conditions: 168 h

Compound: NNC(=O)c1ccncc1 [ISONIAZID]
- MIC90 [1]: > 40 µg/mL
- MIC90 [2]: > 40 µg/mL

Compound: O=C(NCc1ccc(N2CC3CCCCC3C2)cc1)c1cc([N+](=O)[O-])cc([N+](=O)[O-])c1 (centres undefined)
- MIC90 [1]: 0.031 µg/mL (≈ 0.073 µM)
- MIC90 [2]: 0.125 µg/mL (≈ 0.294 µM)

Compound: CO[C@H]1/C=C/O[C@@]2(C)Oc3c(C)c(O)c4c(O)c(c(/C=N/N5CCN(C)CC5)c(O)c4c3C2=O)NC(=O)/C(C)=C\C=C\[C@H](C)[C@H](O)[C@@H](C)[C@@H](O)[C@@H](C)[C@H](OC(C)=O)[C@@H]1C [RIFAMPIN]
- MIC90 [1]: > 40 µg/mL
- MIC90 [2]: > 40 µg/mL

Compound: O=C(NCc1ccc(N2CCC(C(F)(F)F)CC2)cc1)c1cc([N+](=O)[O-])cc([N+](=O)[O-])c1
- MIC90 [1]: < 0.016 µg/mL
- MIC90 [2]: 0.075 µg/mL (≈ 0.166 µM)

Compound: O=C(NCc1ccc(N2CCC(C(F)(F)F)CC2)cc1)c1cc([N+](=O)[O-])cc(C(F)(F)F)c1
- MIC90 [1]: 0.138 µg/mL (≈ 0.29 µM)
- MIC90 [2]: > 40 µg/mL

Compound: O=C(NCc1ccc(N2CCN(c3ccc(F)cc3)CC2)cc1)c1cc([N+](=O)[O-])cc([N+](=O)[O-])c1
- MIC90 [1]: 0.047 µg/mL (≈ 0.098 µM)
- MIC90 [2]: 0.077 µg/mL (≈ 0.161 µM)

Compound: O=c1nc(N2CCN(CC3CCCCC3)CC2)sc2c([N+](=O)[O-])cc(C(F)(F)F)cc12 [MACOZINONE]
- MIC90 [1]: 0.116 µg/mL (≈ 0.254 µM)
- MIC90 [2]: 0.232 µg/mL (≈ 0.508 µM)

Compound: COc1ccc(OCCNC(=O)c2cc([N+](=O)[O-])cc([N+](=O)[O-])c2)cc1
- MIC [3]: 0.075 µg/mL (≈ 0.208 µM)

Compound: O=C(NCc1ccc(N2CCC(c3ccc(OC(F)(F)F)cc3)CC2)cc1)c1cc([N+](=O)[O-])cc([N+](=O)[O-])c1
- MIC90 [1]: 0.21 µg/mL (≈ 0.386 µM)
- MIC90 [2]: 0.474 µg/mL (≈ 0.871 µM)

Compound: O=C(NCc1ccc(N2CCSCC2)cc1)c1cc([N+](=O)[O-])cc([N+](=O)[O-])c1
- MIC90 [1]: 0.017 µg/mL (≈ 0.0422 µM)
- MIC90 [2]: 0.085 µg/mL (≈ 0.211 µM)
